Six molecules from ChEMBL document CHEMBL4396971, “Discovery of potent and orally bioavailable indazole-based glucagon receptor antagonists for the treatment of type 2 diabetes” (Bioorg Med Chem Lett, 2019) can be followed below.

What is called Cmax is the peak of the concentration-time curve. A word on the AUC(0-t): it is the area under the concentration-time curve up to a stated or last time point. Low values mean low exposure, high ones high exposure. What is called half-life is the time needed for the level to fall by half in the phase considered. A higher half-life goes with slow decline. For orientation: bioavailability means dose-corrected exposure relative to a reference, in per cent. Low readings indicate little systemic uptake, high ones much systemic uptake. As usually defined, the IC50 is the concentration needed to halve the response being measured. A lower IC50 goes with greater potency in that assay. The term Ki denotes a measure of affinity in units of concentration, obtained from inhibition or displacement.

The nature of series [1]: Stability in mouse liver microsomes assessed as parent compound remaining at 1 uM incubated for 10 mins. It is filed as ADME, Microsome. Particulars: liver microsomes, read-out: Stability. In general terms: Liver microsomes are vesicles of endoplasmic reticulum, rich in cytochrome P450 enzymes.
Series [2] is described as follows: Stability in dog liver microsomes assessed as parent compound remaining at 1 uM incubated for 10 mins. It is filed as ADME, Canis lupus familiaris, Microsome. As to conditions: for remaining at 10 min, 1 µM: liver microsomes, read-out: Stability.
Series [3] in a line: Stability in human liver microsomes assessed as parent compound remaining at 1 uM incubated for 10 mins. It counts as ADME, Microsome. Particulars: read-out: Stability.
The nature of series [4]: Stability in rat liver microsomes assessed as parent compound remaining at 1 uM incubated for 10 mins. As to conditions: read-out: Stability. It is filed as ADME, Microsome.
Series [5] has as its target T1, Glucagon receptor (Homo sapiens, UniProt P47871). The series is described as follows: Potency index, ratio of Ki of 3-[[4-[(1R)-1-[5-[2-Chloro4-(trifluoromethyl)phenyl]indazol-1-yl]-3-methyl-butyl]benzoyl]amino]propanoic acid to Ki of compound for human full length GCGR transfected in HEK293 cells assessed as reduction in glucagon-induced cAMP response by LANCE TR-FRET assay. It counts as functional, cell-based. For orientation: TR-FRET usually uses a lanthanide donor and a delayed reading to cut background.

A short description of series [6]: Cmax in Sprague-Dawley rat at 2 mg/kg, iv or 10 mg/kg, po. Particulars: in vivo. It counts as ADME, organism-based.
The nature of series [7]: Clearance in Sprague-Dawley rat at 2 mg/kg, iv or 10 mg/kg, po. It is filed as ADME, organism-based. As to conditions: in vivo.
Series [8] can be described thus: Clearance in C57 mouse at 5 mg/kg, iv or 20 mg/kg, po. It is filed as ADME, organism-based. As to conditions: in vivo.
A short description of series [9]: AUClast in dog at 2 mg/kg, iv or 10 mg/kg, po. As to conditions: in vivo. It counts as ADME, organism-based, Canis lupus familiaris.
Series [10] can be described thus: AUClast in Sprague-Dawley rat at 2 mg/kg, iv or 10 mg/kg, po. As to conditions: in vivo. It is filed as ADME, organism-based.
The nature of series [11]: Volume of distribution at steady state in Sprague-Dawley rat at 2 mg/kg, iv or 10 mg/kg, po. Particulars: in vivo, read-out: Vdss. It is filed as ADME, organism-based.
The nature of series [12]: Half life in C57 mouse at 20 mg/kg, po. It is filed as ADME, organism-based. As to conditions: in vivo.
Series [13] is described as follows: Half life in dog at 10 mg/kg, po. It counts as ADME, organism-based, Canis lupus familiaris. As to conditions: in vivo.
Series [14] is described as follows: Oral bioavailability in C57 mouse at 20 mg/kg. As to conditions: in vivo. It is filed as ADME, organism-based.
Series [15] can be described thus: Half life in Sprague-Dawley rat at 2 mg/kg, iv. It is filed as ADME, organism-based. As to conditions: in vivo.
The nature of series [16]: AUClast in C57 mouse at 5 mg/kg, iv or 20 mg/kg, po. It is filed as ADME, organism-based. Particulars: in vivo.
The nature of series [17]: Oral bioavailability in Sprague-Dawley rat at 10 mg/kg. Particulars: in vivo. It is filed as ADME, organism-based.
Series [18] in a line: Half life in Sprague-Dawley rat at 10 mg/kg, po. It is filed as ADME, organism-based. Particulars: in vivo.
The nature of series [19]: Half life in dog at 2 mg/kg, iv. It is filed as ADME, organism-based, Canis lupus familiaris. Particulars: in vivo.
A further series has as its target T2, Cytochrome P450 1A2 (Homo sapiens, UniProt P05177).
T2 sequence (P05177 whole entry): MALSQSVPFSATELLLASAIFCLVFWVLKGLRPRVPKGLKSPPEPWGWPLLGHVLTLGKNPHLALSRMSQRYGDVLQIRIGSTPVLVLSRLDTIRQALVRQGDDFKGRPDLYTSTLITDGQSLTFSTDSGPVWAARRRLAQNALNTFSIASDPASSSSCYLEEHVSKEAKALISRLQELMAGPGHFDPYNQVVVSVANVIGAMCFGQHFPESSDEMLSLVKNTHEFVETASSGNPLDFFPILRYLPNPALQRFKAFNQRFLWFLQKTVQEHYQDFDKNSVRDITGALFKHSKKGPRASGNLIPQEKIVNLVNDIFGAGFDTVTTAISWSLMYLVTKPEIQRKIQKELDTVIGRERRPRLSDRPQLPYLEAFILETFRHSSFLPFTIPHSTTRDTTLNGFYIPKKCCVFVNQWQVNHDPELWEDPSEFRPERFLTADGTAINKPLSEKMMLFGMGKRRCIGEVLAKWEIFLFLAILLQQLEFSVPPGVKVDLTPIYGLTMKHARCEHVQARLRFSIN
The series is described as follows: Inhibition of CYP1A2 (unknown origin) using phenacetin as substrate. It counts as ADME.

The nature of series [20]: Volume of distribution at steady state in dog at 2 mg/kg, iv or 10 mg/kg, po. It is filed as ADME, organism-based, Canis lupus familiaris. As to conditions: in vivo, read-out: Vdss.
The next series concerns the target Cytochrome P450 2C9 (Homo sapiens, UniProt P11712). The series is described as follows: Inhibition of CYP2C9 (unknown origin) using tolbutamide as substrate. It is filed as ADME.
Series [21] is described as follows: Volume of distribution at steady state in C57 mouse at 5 mg/kg, iv or 20 mg/kg, po. As to conditions: in vivo, read-out: Vdss. It counts as ADME, organism-based.
Series [22] is described as follows: Cmax in dog at 2 mg/kg, iv or 10 mg/kg, po. It counts as ADME, organism-based, Canis lupus familiaris. As to conditions: in vivo.
Series [23] can be described thus: Protein binding in human plasma at 1 uM. It is filed as ADME, cell-free. As to conditions: read-out: PPB.
Series [24] can be described thus: Oral bioavailability in dog at 10 mg/kg. It is filed as ADME, organism-based, Canis lupus familiaris. As to conditions: in vivo.
In the next series the target is Cytochrome P450 2D6 (Homo sapiens, UniProt P10635). The series is described as follows: Inhibition of CYP2D6 (unknown origin) using dextromethorphan as substrate. It is filed as ADME.
Series [25] in a line: Antagonist activity at GCGR in dog hepatocytes assessed as inhibition of glucagon-induced cAMP by LANCE TR-FRET assay. It counts as cell-based, Canis lupus familiaris.
In series [26] the target is T3, Cytochrome P450 3A4 (Homo sapiens, UniProt P08684). Put plainly: Inhibition of CYP3A4 (unknown origin) using midazolam as substrate. It counts as ADME.
Series [27] deals with T3, Cytochrome P450 3A4. The series is described as follows: Inhibition of CYP3A4 (unknown origin) using testosterone as substrate. It counts as ADME.
Series [28] can be described thus: Clearance in dog at 2 mg/kg, iv or 10 mg/kg, po. It is filed as ADME, organism-based, Canis lupus familiaris. As to conditions: in vivo.
The nature of series [29]: Half life in C57 mouse at 5 mg/kg, iv. It is filed as ADME, organism-based. Particulars: in vivo.
The nature of series [30]: Cmax in C57 mouse at 5 mg/kg, iv or 20 mg/kg, po. It counts as ADME, organism-based. As to conditions: in vivo.
Another series addresses Cytochrome P450 2C19 (Homo sapiens, UniProt P33261). Put plainly: Inhibition of CYP2C19 (unknown origin) using S-Mephenytoin as substrate. It counts as ADME.
Series [31] has as its target T1, Glucagon receptor. Put plainly: Inhibition of human full length GCGR transfected in HEK293 cells assessed as reduction in glucagon-induced cAMP response by LANCE TR-FRET assay. It counts as functional, cell-based.

T1 sequence (P47871 whole entry): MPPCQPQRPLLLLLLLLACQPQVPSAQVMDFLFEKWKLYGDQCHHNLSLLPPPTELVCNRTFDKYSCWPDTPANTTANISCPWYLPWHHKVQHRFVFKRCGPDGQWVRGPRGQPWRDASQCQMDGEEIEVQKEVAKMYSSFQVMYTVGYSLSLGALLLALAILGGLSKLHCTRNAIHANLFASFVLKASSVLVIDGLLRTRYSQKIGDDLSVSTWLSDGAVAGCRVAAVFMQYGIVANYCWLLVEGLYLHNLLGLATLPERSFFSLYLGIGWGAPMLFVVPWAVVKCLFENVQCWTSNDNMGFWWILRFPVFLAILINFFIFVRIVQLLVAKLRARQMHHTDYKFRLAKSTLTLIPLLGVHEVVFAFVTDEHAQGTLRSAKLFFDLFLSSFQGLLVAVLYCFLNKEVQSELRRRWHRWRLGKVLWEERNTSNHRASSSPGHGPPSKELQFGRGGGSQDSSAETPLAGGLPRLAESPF
T3 sequence (P08684 whole entry): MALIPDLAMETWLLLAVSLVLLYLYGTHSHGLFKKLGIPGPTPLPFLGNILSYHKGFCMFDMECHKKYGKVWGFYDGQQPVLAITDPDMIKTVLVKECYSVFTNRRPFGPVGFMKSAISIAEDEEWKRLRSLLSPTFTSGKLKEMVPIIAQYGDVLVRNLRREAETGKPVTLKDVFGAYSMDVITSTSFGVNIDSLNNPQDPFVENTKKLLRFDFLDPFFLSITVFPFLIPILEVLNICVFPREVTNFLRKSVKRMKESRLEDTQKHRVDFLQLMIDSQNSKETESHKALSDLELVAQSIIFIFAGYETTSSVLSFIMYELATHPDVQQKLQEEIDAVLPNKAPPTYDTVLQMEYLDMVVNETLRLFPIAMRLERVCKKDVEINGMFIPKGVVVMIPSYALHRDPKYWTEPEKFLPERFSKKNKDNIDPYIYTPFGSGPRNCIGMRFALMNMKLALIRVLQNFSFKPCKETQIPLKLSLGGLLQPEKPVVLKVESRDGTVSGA
Sequence of Cytochrome P450 2C9 (P11712 whole entry): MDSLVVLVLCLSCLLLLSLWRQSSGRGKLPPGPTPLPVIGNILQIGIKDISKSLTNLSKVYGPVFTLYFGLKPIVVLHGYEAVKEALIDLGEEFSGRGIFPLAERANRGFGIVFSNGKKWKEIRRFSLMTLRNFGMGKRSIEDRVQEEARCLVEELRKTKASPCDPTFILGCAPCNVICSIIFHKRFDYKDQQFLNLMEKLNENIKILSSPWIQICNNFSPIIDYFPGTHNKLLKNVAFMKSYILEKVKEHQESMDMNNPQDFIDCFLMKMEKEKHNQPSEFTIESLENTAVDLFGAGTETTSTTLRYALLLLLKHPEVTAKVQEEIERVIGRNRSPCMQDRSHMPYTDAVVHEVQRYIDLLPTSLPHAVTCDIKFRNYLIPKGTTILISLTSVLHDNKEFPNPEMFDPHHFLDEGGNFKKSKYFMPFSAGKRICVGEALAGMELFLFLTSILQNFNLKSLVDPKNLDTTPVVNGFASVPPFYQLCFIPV
Sequence of Cytochrome P450 2C19 (P33261 whole entry): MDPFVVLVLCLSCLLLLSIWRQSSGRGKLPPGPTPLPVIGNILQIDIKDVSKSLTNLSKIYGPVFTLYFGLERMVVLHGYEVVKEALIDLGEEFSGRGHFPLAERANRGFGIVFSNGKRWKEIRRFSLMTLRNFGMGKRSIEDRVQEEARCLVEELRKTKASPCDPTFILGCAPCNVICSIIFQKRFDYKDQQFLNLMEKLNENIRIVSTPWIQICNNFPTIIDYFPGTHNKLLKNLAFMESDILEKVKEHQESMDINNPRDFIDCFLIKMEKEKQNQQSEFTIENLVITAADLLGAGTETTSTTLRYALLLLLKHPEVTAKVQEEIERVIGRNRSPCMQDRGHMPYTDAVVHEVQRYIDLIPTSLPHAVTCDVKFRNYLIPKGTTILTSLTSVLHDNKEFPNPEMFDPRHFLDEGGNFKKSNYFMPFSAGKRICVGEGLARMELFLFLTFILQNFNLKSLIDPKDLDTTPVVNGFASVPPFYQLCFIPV
Sequence of Cytochrome P450 2D6 (P10635 whole entry): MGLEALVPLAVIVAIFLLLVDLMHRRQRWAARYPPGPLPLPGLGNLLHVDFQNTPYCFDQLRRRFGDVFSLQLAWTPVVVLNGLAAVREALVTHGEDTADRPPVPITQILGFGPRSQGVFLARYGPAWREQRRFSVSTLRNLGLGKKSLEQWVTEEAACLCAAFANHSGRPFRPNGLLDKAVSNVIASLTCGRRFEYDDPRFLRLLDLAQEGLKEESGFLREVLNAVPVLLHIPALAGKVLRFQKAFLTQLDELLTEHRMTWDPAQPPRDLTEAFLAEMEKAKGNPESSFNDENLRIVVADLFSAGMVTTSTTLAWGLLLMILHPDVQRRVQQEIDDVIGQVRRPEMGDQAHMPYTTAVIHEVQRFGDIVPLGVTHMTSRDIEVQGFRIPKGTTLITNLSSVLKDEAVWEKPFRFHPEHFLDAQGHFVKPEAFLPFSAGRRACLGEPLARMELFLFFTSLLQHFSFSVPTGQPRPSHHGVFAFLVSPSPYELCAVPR

For the molecule `COc1c(-c2ccc(C(F)(F)F)cc2Cl)ccc2nn([C@@H](CC(C)C)c3ccc(C(=O)NCCC(=O)O)cc3)cc12`, the remaining at 10 min, 1 µM in series [1] worked out at 82%; in series [2] it was 76%; in [3] it was 89%; in series [4] it was 84%.
In the case of `CC(C)C[C@@H](c1ccc(C(=O)NCCC(=O)O)cc1)n1ncc2cc(-c3ccc(C(F)(F)F)cc3Cl)ccc21`, the results for the remaining at 10 min, 1 µM in series [1], in series [3] and in [4] were 107%, 59% and 81%, respectively. Besides, the Stability in series [2] (microsomes, 10 min, 1 µM) amounted to 121%. Besides, the Ratio Ki at Glucagon receptor [5] was 15.
As to `Cc1cc(C(F)(F)F)ccc1-c1cc2cn([C@@H](CC(C)C)c3ccc(C(=O)NCCC(=O)O)cc3)nc2cc1C`, the figures for the Cmax in [6], in series [22] and in series [30] were 1100 nM, 35 µM and 7.9 µM, respectively. Moreover, the remaining at 10 min, 1 µM in series [1] was found to be 79%; in [2], 68%; in series [3] it was 57%; in [4] it was 113%. Moreover, the figures for the clearance in series [7], in series [8] and in series [28] were 12.7 mL/min/kg, 4.78 mL/min/kg and 0.19 mL/min/kg, respectively. In addition, the AUC(0-t) in series [9] was determined as 468 µM·h; in [10], 9.2 µM·h; in [16], 90.1 µM·h. Besides, the Vd in series [11] came to 2.94 L/kg; in series [20], 0.26 L/kg; in series [21] it was 1.56 L/kg. Moreover, the half-life in series [12] was 300 min; in series [13], 1210 min; in series [15], 222 min; in series [18] it was 258 min; in series [19] it was 1300 min; in [29], 270 min. The results for the bioavailability in series [14], in series [17] and in series [24] were 74.4%, 32.3% and 45%, respectively. For the same molecule, the IC50 at Cytochrome P450 1A2, against Cytochrome P450 2C9, against Cytochrome P450 2D6, on Cytochrome P450 3A4 [26], at Cytochrome P450 3A4 [27] and on Cytochrome P450 2C19 was > 10 µM each time. For the same molecule, the fraction unbound at 1 µM in [23] came to 0.0001. Moreover, in [25], the Ki was found to be 650 nM.
Turning to `CC(C)C[C@@H](c1ccc(C(=O)NCCC(=O)O)cc1)n1ncc2cc(-c3ccc(C(F)(F)F)cc3)ccc21`, the Ki on Glucagon receptor [31] was 460 nM.
The same measure, in the same setting: to `CC(C)C[C@H](c1ccc(C(=O)NCCC(=O)O)cc1)n1ncc2cc(-c3ccc(C(F)(F)F)cc3)ccc21` belongs 96 nM.
Consider `COc1c(-c2ccc(C(F)(F)F)cc2Cl)ccc2nn([C@H](CC(C)C)c3ccc(C(=O)NCCC(=O)O)cc3)cc12`, for which the remaining at 10 min, 1 µM in series [1] is 76%; in [2], 79%; in series [3], 116%; in series [4] it was 100%.
